From PubChem BioAssay AID194 (DTP/NCI, 2004)
“And” between values parts separate entries of the source, which are not always exact repeats. Equal values may be shown once. Results filed as inconclusive are left out.

Tested on: BDF1 mice, B16 melanoma s.c., survival/tumor T/C
Assay: NCI In Vivo Anticancer Drug Screen. Data for tumor model B16 Melanoma (subcutaneous) in B6D2F1 (BDF1) mice
Procedure: The antitumor activity of compounds was measured in mice bearing transplantable tumors. Survival or tumor size were measured and the results are expressed as the measurement made in the treated group (T) divided by the measurement made in the vehicle treated control group (C). The tumor model used in this assay is B16 Melanoma (subcutaneous) in B6D2F1 (BDF1) mice

[1] = endpoint: median survival time, dose: 100.0 mg/kg/injection, schedule: Q01DX009 (ip), vehicle: saline with Tween-80, higher = longer survival
[2] = endpoint: median survival time, dose: 8.0 mg/kg/injection, schedule: Q01DX009 (ip), vehicle: saline, higher = longer survival
[3] = endpoint: median survival time, dose: 16.0 mg/kg/injection, schedule: Q01DX009 (ip), vehicle: saline, higher = longer survival

For CCSC(=O)N1c2ccc(OC)cc2C=CC1C#N (stereo not given), the T/C [1] was 109 % of control and the T/C (endpoint: median survival time, dose: 200.0 mg/kg/injection, schedule: Q01DX009 (ip), vehicle: saline with Tween-80, higher = longer survival) was 114 % of control.
With NC(=O)c1[nH]nc(C2OC(CO)C(O)C2O)c1O (stereo not given) the T/C (endpoint: median survival time, dose: 0.12 mg/kg/injection, schedule: Q01DX009 (ip), vehicle: saline, higher = longer survival) was 108 % of control, the T/C (endpoint: median survival time, dose: 0.25 mg/kg/injection, schedule: Q01DX009 (ip), vehicle: saline, higher = longer survival) was 109 % of control and the T/C (endpoint: median survival time, dose: 0.5 mg/kg/injection, schedule: Q01DX009 (ip), vehicle: saline, higher = longer survival) was 106 % of control. The T/C (endpoint: median survival time, dose: 0.67 mg/kg/injection, schedule: Q01DX009 (ip), vehicle: saline, higher = longer survival) was 102 % of control and the T/C (endpoint: median survival time, dose: 1.25 mg/kg/injection, schedule: Q01DX009 (ip), vehicle: saline, higher = longer survival) was 87 % of control.
For COC(=O)C[C@](O)(CCCC(C)(C)O)C(=O)O[C@@H]1C(OC)=C[C@]23CCCN2CCc2cc4c(cc2[C@H]13)OCO4, the T/C (endpoint: median survival time, dose: 0.25 mg/kg/injection, schedule: Q01DX009 (ip), vehicle: acid diluted with saline, higher = longer survival) was 118 % of control, the T/C (endpoint: median survival time, dose: 0.5 mg/kg/injection, schedule: Q01DX009 (ip), vehicle: acid diluted with saline, higher = longer survival) was 100 % of control and the T/C (endpoint: median survival time, dose: 0.7 mg/kg/injection, schedule: Q01DX009 (ip), vehicle: acid diluted with saline, higher = longer survival) was 101 % of control. The T/C (endpoint: median survival time, dose: 1.0 mg/kg/injection, schedule: Q01DX009 (ip), vehicle: acid diluted with saline, higher = longer survival) was 103 % of control and the T/C (endpoint: median survival time, dose: 1.5 mg/kg/injection, schedule: Q01DX009 (ip), vehicle: acid diluted with saline, higher = longer survival) was 101 % of control.
In the case of N[C@H](C(=O)O)[C@H]1ON=C(Cl)[C@@H]1O, the T/C [2] is reported as 113 % of control, the T/C [3] is reported as 114 % of control and the T/C (endpoint: median survival time, dose: 32.0 mg/kg/injection, schedule: Q01DX009 (ip), vehicle: saline, higher = longer survival) is reported as 108 % of control. For the same compound, the T/C (endpoint: median survival time, dose: 128.0 mg/kg/injection, schedule: Q01DX009 (ip), vehicle: saline, higher = longer survival) was 114 % of control, the T/C (endpoint: median survival time, dose: 256.0 mg/kg/injection, schedule: Q01DX009 (ip), vehicle: saline, higher = longer survival) was 114 % of control and the T/C (endpoint: median survival time, dose: 500.0 mg/kg/injection, schedule: Q01DX009 (ip), vehicle: saline with Tween-80, higher = longer survival) was 117 % of control.
In the case of CC(=O)NNC(=O)c1ccccn1, the T/C (endpoint: median survival time, dose: 6.25 mg/kg/injection, schedule: Q01DX009 (ip), vehicle: Klucel (hydroxypropylcellulose) (HPC), higher = longer survival) is reported as 102 % of control, the T/C (endpoint: median survival time, dose: 12.5 mg/kg/injection, schedule: Q01DX009 (ip), vehicle: Klucel (hydroxypropylcellulose) (HPC), higher = longer survival) is reported as 92 % of control and the T/C (endpoint: median survival time, dose: 25.0 mg/kg/injection, schedule: Q01DX009 (ip), vehicle: Klucel (hydroxypropylcellulose) (HPC), higher = longer survival) is reported as 86 % of control. For the same compound, the T/C (endpoint: median survival time, dose: 50.0 mg/kg/injection, schedule: Q01DX009 (ip), vehicle: Klucel (hydroxypropylcellulose) (HPC), higher = longer survival) was 88 % of control and 98 % of control and the T/C (endpoint: median survival time, dose: 100.0 mg/kg/injection, schedule: Q01DX009 (ip), vehicle: Klucel (hydroxypropylcellulose) (HPC), higher = longer survival) was 88 % of control.
For Cc1nc(N)nc(N)c1-c1ccc(Cl)c(Cl)c1, the T/C (endpoint: median survival time, dose: 1.0 mg/kg/injection, schedule: Q02DX009 (ip), vehicle: Klucel (hydroxypropylcellulose) (HPC), higher = longer survival) was 103 % of control, the T/C (endpoint: median survival time, dose: 2.0 mg/kg/injection, schedule: Q02DX009 (ip), vehicle: Klucel (hydroxypropylcellulose) (HPC), higher = longer survival) was 99 % of control and the T/C (endpoint: median survival time, dose: 4.0 mg/kg/injection, schedule: Q02DX009 (ip), vehicle: Klucel (hydroxypropylcellulose) (HPC), higher = longer survival) was 88 % of control. For the same compound, the T/C (endpoint: median survival time, dose: 8.0 mg/kg/injection, schedule: Q02DX009 (ip), vehicle: Klucel (hydroxypropylcellulose) (HPC), higher = longer survival) was 112 % of control.
O was tested, and the T/C (endpoint: median survival time, dose: 50.0 mg/kg/injection, schedule: Q02DX009 (ip), vehicle: saline, higher = longer survival) was 94 % of control, the T/C (endpoint: median survival time, dose: 100.0 mg/kg/injection, schedule: Q02DX009 (ip), vehicle: saline, higher = longer survival) was 101 % of control and the T/C (endpoint: median survival time, dose: 200.0 mg/kg/injection, schedule: Q02DX009 (ip), vehicle: saline, higher = longer survival) was 118 % of control. The T/C (endpoint: median survival time, dose: 400.0 mg/kg/injection, schedule: Q02DX009 (ip), vehicle: saline, higher = longer survival) was 98 % of control.
Cc1[nH]nc(-c2ccon2)c1N=O was tested, and the T/C (endpoint: median survival time, dose: 12.5 mg/kg/injection, schedule: Q01DX009 (ip), vehicle: saline with Tween-80, higher = longer survival) was 91 % of control, the T/C (endpoint: median survival time, dose: 25.0 mg/kg/injection, schedule: Q01DX009 (ip), vehicle: saline with Tween-80, higher = longer survival) was 96 % of control and the T/C (endpoint: median survival time, dose: 50.0 mg/kg/injection, schedule: Q01DX009 (ip), vehicle: saline with Tween-80, higher = longer survival) was 100 % of control. The T/C [1] was 87 % of control.
For O=c1[nH]cc(N(CCCl)CCCl)c(=O)[nH]1, the T/C (endpoint: median survival time, dose: 0.25 mg/kg/injection, schedule: Q01DX009 (ip), vehicle: saline with Tween-80, higher = longer survival) was 109 % of control and the T/C (endpoint: median survival time, dose: 0.5 mg/kg/injection, schedule: Q01DX009 (ip), vehicle: saline with Tween-80, higher = longer survival) was 124 % of control.
In the case of CN1c2c(nc(N)[nH]c2=O)NCC1CCNc1ccc(C(=O)NC(CCC(=O)O)C(=O)O)cc1 (stereo not given), the T/C (endpoint: median survival time, dose: 600.0 mg/kg/injection, schedule: Q04DX003 (ip), vehicle: saline, higher = longer survival) is reported as 118 % of control and 123 % of control, the T/C (endpoint: median survival time, dose: 800.0 mg/kg/injection, schedule: Q01DX001 (ip), vehicle: saline, higher = longer survival) is reported as 108 % of control and the T/C (endpoint: median survival time, dose: 800.0 mg/kg/injection, schedule: Q04DX003 (ip), vehicle: saline, higher = longer survival) is reported as 113 % of control. For the same compound, the T/C (endpoint: median survival time, dose: 900.0 mg/kg/injection, schedule: Q04DX003 (ip), vehicle: saline, higher = longer survival) was 159 % of control, the T/C (endpoint: median survival time, dose: 1200.0 mg/kg/injection, schedule: Q01DX001 (ip), vehicle: saline, higher = longer survival) was 119 % of control and 121 % of control and the T/C (endpoint: median survival time, dose: 1800.0 mg/kg/injection, schedule: Q01DX001 (ip), vehicle: saline, higher = longer survival) was 121 % of control. For the same compound, the T/C (endpoint: median survival time, dose: 2400.0 mg/kg/injection, schedule: Q01DX001 (ip), vehicle: saline, higher = longer survival) was 121 % of control.
O=NN(CCCl)C(=O)NC1CCC(=O)NC1=O (stereo not given) was tested, and the T/C (endpoint: median survival time, dose: 1.0 mg/kg/injection, schedule: Q01DX009 (ip), vehicle: Klucel (hydroxypropylcellulose) (HPC), higher = longer survival) was 115 % of control, the T/C (endpoint: median survival time, dose: 1.56 mg/kg/injection, schedule: Q01DX007 (ip), vehicle: Klucel (hydroxypropylcellulose) (HPC), higher = longer survival) was 97 % of control and the T/C (endpoint: median survival time, dose: 4.0 mg/kg/injection, schedule: Q01DX009 (ip), vehicle: Klucel (hydroxypropylcellulose) (HPC), higher = longer survival) was 168 % of control and 228 % of control. The T/C (endpoint: median survival time, dose: 4.32 mg/kg/injection, schedule: Q01DX007 (ip), vehicle: Klucel (hydroxypropylcellulose) (HPC), higher = longer survival) was 98 % of control, the T/C (endpoint: median survival time, dose: 7.2 mg/kg/injection, schedule: Q01DX007 (ip), vehicle: Klucel (hydroxypropylcellulose) (HPC), higher = longer survival) was 121 % of control and the T/C (endpoint: median survival time, dose: 17.0 mg/kg/injection, schedule: Q01DX001 (ip), vehicle: gum acacia, higher = longer survival) was 177 % of control. The T/C (endpoint: median survival time, dose: 23.0 mg/kg/injection, schedule: Q01DX001 (ip), vehicle: gum acacia, higher = longer survival) was 89 % of control.
CCN(CC)CCNc1ccc(CO)c2sc3ccccc3c(=O)c12 was tested, and the T/C (endpoint: median survival time, dose: 34.0 mg/kg/injection, schedule: Q01DX005 (ip), vehicle: water, higher = longer survival) was 105 % of control, the T/C (endpoint: median tumor weight (est.), dose: 34.0 mg/kg/injection, schedule: Q01DX005 (ip), vehicle: water, higher = larger tumour) was 55 % of control and the T/C (endpoint: median tumor weight (est.), dose: 50.0 mg/kg/injection, schedule: Q01DX005 (ip), vehicle: water, higher = larger tumour) was 72 % of control. For the same compound, the T/C (endpoint: median tumor weight (est.), dose: 75.0 mg/kg/injection, schedule: Q01DX005 (ip), vehicle: water, higher = larger tumour) was 28 % of control.
For FC(F)(F)c1nc2nc(Cl)c(Cl)nc2[nH]1, the T/C (endpoint: median survival time, dose: 4.0 mg/kg/injection, schedule: Q01DX009 (ip), vehicle: saline, higher = longer survival) was 109 % of control, the T/C [2] was 105 % of control and the T/C [3] was 118 % of control.
For Cc1cc2oc(=O)c3c(c2c(O)c1CN1CCN(C)CC1)CCCC3, the T/C (endpoint: median survival time, dose: 64.0 mg/kg/injection, schedule: Q01DX009 (ip), vehicle: Klucel (hydroxypropylcellulose) (HPC), higher = longer survival) was 110 % of control and the T/C (endpoint: median survival time, dose: 128.0 mg/kg/injection, schedule: Q01DX009 (ip), vehicle: Klucel (hydroxypropylcellulose) (HPC), higher = longer survival) was 113 % of control.
